Measured values as given in patent US9738637B2, “Histone demethylase inhibitors” (Quanticel Pharmaceuticals, Inc., priority 2013, dated 2017).
pIC50: −log10 of the molar value.

Experiments:
JMJD2C = JMJD2C (Homo sapiens (Human), UniProt Q9H3R0); experiment: JMJD2C in vitro enzyme inhibition assay (TR-FRET); assay type: biochemical; conditions: TR-FRET, H3K9me3-biotin peptide; read-out: IC50 JNJD2C
Protocol: (§1) This assay determines the ability of a test compound to inhibit Jarid1A, Jarid1B, JMJD2C, and JMJD2A demethylase activity.
(§2) Reaction product was determined quantitatively by TR-FRET after the addition of detection reagent Phycolink Streptavidin-allophycocyanin (Prozyme) and Europium-anti-di-methylated histone H3 lysine 9 (H3K9me2) antibody (PerkinElmer) in the presence of 5 mM EDTA in LANCE detection buffer (PerkinElmer) at a final concentration of 50 nM and 1 nM, respectively.
(§3) The assay reaction was initiated by the following: 2 μl of the mixture of 900 nM H3K9me3-biotin labeled peptide and 6 μM alpha-ketoglutaric acid with 2 μl of 11-point serial diluted inhibitor in 3% DMSO were added to each well of the plate, followed by the addition of 2 μl of 0.9 nM JMJD2C to initiate the reaction. The reaction mixture was incubated at room temperature for 30 minutes, and terminated by the addition of 6 μl of 5 mM EDTA in LANCE detection buffer containing 100 nM Phycolink Streptavidin-allophycocyanin and 2 nM Europium-anti-H3K9me2 antibody.
(§4) The ability of the compounds disclosed herein to inhibit demethylase activity was quantified and the respective IC50 value was determined.

Jarid1A = Jarid1A (Homo sapiens (Human), UniProt P29375); experiment: Jarid1A in vitro enzyme inhibition assay (TR-FRET); assay type: biochemical; conditions: H3K4me3-biotin peptide
Protocol: as §1
The enzymatic assay of Jarid1A activity is based upon Time Resolved-Fluorescence Resonance Energy Transfer (TR-FRET) detection.
The assay reaction was initiated by the following: 2 μl of the mixture of 900 nM H3K4me3-biotin labeled peptide and 6 μM alpha-ketoglutaric acid with 2 μl of 11-point serial diluted inhibitor in 3% DMSO was added to each well of plate, followed by the addition of 2 μl of 3 nM Jarid1A to initiate the reaction. The reaction mixture was incubated at room temperature for 30 minutes, and terminated by the addition of 6 μl of 5 mM EDTA in LANCE detection buffer containing 50 nM Phycolink Streptavidin-allophycocyanin and 2 nM Europium-anti-H3K4me1-2 antibody.
as §4

JMJD2A = JMJD2A (Homo sapiens (Human), UniProt O75164); experiment: JMJD2A in vitro enzyme inhibition assay (TR-FRET); assay type: biochemical; conditions: H3K9me3-biotin peptide
Protocol: as §1, §2
as §3, with “well of plate, followed” for “well of the plate, followed”, “μl of 6 nM JMJD2A” for “μl of 0.9 nM JMJD2C”, “6 nM JMJD2A to initiate” for “0.9 nM JMJD2C to initiate”
as §4

Jarid1B = Jarid1B (Homo sapiens (Human), UniProt Q9UGL1); experiment: Jarid1B in vitro enzyme inhibition assay (TR-FRET); assay type: biochemical; conditions: TR-FRET, H3K4me3-biotin peptide; read-out: IC50 Jarid1B
Protocol: as §1
The reaction mixture was incubated at room temperature for 30 minutes, and terminated by the addition of 6 μl of 5 mM EDTA in LANCE detection buffer containing 50 nM Phycolink Streptavidin-allophycocyanin and 2 nM Europium-anti-H3K4me1-2 antibody.
as §4

KDM5A and KDM5B = experiment: In vitro cell-based assay, ZR-75-1 cell line: tri-methyl H3K4 immuno-blotting (cellular inhibition of KDM5A/B); conditions: ZR-75-1 breast cancer cells, 72 hours, read-out: IC50 ZR-75-1 cell-MOA
From the text: This quantitative immuno-blotting assay measures the amount tri-methylated histone H3 at amino acid Lysine number 4, a specific substrate […] of the direct enzymatic activity of the histone demethylases KDM5A and KDM5B from extracts of the ZR-75-1 breast cancer cell line.
This assay is a fluorometric immunoassay for the quantification of tri-methyl H3K4 extracted from cells treated with test compound and is used as a measure of the cellular inhibition of KDM5A/B.
Cells were left in the presence of test compound for 72 hours. Extracts were prepared containing all of the cellular histone material using detergent based lysis and sonication methods. These lysates were subsequently normalized for total protein content using a colorimetric bicinchonic acid assay (MicroBCA Pierce/Thermo Scientific). Normalized cell extracts were then subjected to typical immuno-blotting procedures using NuPage reagents (Life Technologies). Electrophoretically separated histones were then transferred and immobilized using polyvinylidene difluoride membrane (Immobilon-FL Millipore). The amount of tri-methylated lysine 4 of histone H3 was detected using an antibody specific to the tri-methylated state (Cell Signaling Technologies) and quantified on an infrared imager using a densitometry software package (Odyssey CLx, Image Studio, Li-Cor). This background subtracted densitometry value was reported as a ration of the GAPDH amount for that sample and then calculated as a percent of the DMSO treated sample. The software package XL-fit (IDBS) was then used to calculate a relative IC50 value for the dilution series of a given test compound according to the equation: fit=(D+((Vmax*(x^n))/((x^n)+(Km^n)))).

Chain of JMJD2A (O75164 1-350): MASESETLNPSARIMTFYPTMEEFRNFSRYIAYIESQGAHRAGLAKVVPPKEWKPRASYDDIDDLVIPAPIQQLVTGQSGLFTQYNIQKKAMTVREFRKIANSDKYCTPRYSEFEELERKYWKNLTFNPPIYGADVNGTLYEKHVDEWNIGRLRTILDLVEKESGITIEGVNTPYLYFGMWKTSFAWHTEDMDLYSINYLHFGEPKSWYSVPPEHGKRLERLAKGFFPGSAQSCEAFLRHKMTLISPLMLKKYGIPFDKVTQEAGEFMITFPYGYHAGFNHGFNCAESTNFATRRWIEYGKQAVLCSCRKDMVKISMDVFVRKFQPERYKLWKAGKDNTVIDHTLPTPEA
Chain of Jarid1A (P29375 1-1090): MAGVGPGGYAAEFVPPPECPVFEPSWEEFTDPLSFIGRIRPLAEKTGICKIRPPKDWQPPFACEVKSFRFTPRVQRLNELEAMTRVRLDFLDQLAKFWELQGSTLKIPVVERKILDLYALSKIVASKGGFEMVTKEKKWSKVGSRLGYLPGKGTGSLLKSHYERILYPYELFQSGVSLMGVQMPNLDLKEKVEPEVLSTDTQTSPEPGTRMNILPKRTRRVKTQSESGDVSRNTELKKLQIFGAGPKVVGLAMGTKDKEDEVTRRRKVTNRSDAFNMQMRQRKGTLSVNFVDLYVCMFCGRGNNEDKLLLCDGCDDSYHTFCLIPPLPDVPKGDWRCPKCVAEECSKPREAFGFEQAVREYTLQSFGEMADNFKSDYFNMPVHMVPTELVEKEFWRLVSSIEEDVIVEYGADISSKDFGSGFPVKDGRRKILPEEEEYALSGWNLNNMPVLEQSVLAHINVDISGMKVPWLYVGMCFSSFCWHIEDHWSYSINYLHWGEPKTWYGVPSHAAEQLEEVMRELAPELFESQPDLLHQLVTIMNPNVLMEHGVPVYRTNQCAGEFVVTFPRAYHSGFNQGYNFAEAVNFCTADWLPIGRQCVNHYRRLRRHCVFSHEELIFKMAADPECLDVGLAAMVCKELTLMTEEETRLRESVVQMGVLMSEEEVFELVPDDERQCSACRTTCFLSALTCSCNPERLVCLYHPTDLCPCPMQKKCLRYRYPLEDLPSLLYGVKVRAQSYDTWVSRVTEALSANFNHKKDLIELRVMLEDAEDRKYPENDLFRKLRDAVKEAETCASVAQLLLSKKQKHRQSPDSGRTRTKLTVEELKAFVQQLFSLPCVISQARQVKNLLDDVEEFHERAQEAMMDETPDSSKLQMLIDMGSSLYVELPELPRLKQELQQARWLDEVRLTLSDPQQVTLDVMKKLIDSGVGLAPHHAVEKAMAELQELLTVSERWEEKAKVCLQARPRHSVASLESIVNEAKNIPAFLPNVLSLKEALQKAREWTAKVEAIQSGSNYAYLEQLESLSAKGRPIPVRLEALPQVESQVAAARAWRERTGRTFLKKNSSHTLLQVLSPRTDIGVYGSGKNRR
Chain of Jarid1B (Q9UGL1 2-751): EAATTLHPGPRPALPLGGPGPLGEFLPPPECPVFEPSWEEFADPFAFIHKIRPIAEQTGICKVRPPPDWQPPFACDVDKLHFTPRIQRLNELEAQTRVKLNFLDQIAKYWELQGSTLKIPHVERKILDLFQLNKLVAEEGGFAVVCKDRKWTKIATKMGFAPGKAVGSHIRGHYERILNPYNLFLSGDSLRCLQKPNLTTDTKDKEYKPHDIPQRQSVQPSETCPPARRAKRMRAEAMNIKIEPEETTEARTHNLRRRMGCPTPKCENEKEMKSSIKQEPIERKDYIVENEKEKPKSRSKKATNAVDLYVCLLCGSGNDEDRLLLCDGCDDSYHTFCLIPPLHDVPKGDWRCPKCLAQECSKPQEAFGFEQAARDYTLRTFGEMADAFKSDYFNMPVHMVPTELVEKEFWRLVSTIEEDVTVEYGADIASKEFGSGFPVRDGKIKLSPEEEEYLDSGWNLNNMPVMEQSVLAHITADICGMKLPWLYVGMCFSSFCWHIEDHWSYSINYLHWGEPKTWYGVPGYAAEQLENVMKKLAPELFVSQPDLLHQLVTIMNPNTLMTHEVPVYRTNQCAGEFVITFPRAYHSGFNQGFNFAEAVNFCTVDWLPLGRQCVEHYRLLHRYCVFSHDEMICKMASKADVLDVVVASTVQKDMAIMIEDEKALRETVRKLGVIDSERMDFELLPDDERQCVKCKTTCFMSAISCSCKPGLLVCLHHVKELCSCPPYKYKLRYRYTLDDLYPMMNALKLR
Chain of JMJD2C (Q9H3R0 2-372): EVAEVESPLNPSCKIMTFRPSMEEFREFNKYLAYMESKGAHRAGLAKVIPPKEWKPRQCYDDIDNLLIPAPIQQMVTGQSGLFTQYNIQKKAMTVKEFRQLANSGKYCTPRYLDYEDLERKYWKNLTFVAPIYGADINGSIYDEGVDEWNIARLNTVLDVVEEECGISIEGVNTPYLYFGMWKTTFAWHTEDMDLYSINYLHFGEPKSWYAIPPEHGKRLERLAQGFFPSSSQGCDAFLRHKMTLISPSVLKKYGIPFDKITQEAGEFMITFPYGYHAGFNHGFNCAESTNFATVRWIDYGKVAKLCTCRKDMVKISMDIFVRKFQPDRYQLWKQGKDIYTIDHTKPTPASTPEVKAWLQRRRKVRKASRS

Compound | pIC50 (JMJD2C) | pIC50 (Jarid1A) | pIC50 (JMJD2A) | pIC50 (Jarid1B) | pIC50 (KDM5A and KDM5B)
COc1cccc(C(O)c2cc3nccc(C(=O)O)c3[nH]2)c1 (racemic) [Example 24, (±)-2-[hydroxy-(3-methoxyphenyl)methyl]-1H-pyrrolo[3,2-b]pyridine-7-carboxylic acid] | 6.00 to 7.00 | > 7.00 | 6.00 to 7.00 | > 7.00 | –
COC(=O)c1ccnc2cc(C(O)C3CCOCC3)[nH]c12 (racemic) [Example 42, (±)-methyl 2-[hydroxy(oxan-4-yl)methyl]-1H-pyrrolo[3,2-b]pyridine-7-carboxylate] | – | – | – | – | < 5.00
O=C(O)c1ccnc2cc(C(O)C3CCOCC3)[nH]c12 (racemic) [Example 43, (±)-2-[hydroxy(oxan-4-yl)methyl]-1H-pyrrolo[3,2-b]pyridine-7-carboxylic acid] | 6.00 to 7.00 | > 7.00 | 6.00 to 7.00 | > 7.00 | –
COC(=O)c1ccnc2cc(C(C)(O)c3ccccc3)[nH]c12 (racemic) [Example 45, (±)-methyl 2-(1-hydroxy-1-phenylethyl)-1H-pyrrolo[3,2-b]pyridine-7-carboxylate] | – | – | – | – | < 5.00
CC(O)(c1ccccc1)c1cc2nccc(C(=O)O)c2[nH]1 (racemic) [Example 46, (±)-2-(1-hydroxy-1-phenylethyl)-1H-pyrrolo[3,2-b]pyridine-7-carboxylic acid] | 6.00 to 7.00 | > 7.00 | – | 6.00 to 7.00 | < 5.00
COC(=O)c1ccnc2cc(C(O)c3ccnn3C)[nH]c12 (racemic) [Example 47, (±)-methyl 2-[hydroxy-(2-methylpyrazol-3-yl)methyl]-1H-pyrrolo[3,2-b]pyridine-7-carboxylate] | – | – | – | – | < 5.00
Cn1nccc1C(O)c1cc2nccc(C(=O)O)c2[nH]1 (racemic) [Example 48, (±)-2-[hydroxy-(2-methylpyrazol-3-yl)methyl]-1H-pyrrolo[3,2-b]pyridine-7-carboxylic acid] | > 7.00 | > 7.00 | – | > 7.00 | < 5.00
O=C(O)c1ccnc2cc(C(O)c3ccccc3Cl)[nH]c12 (racemic) [Example 72, (±)-2-[(2-chlorophenyl)-hydroxymethyl]-1H-pyrrolo[3,2-b]pyridine-7-carboxylic acid] | 6.00 to 7.00 | > 7.00 | – | > 7.00 | < 5.00
O=C(O)c1ccnc2cc(-c3ccccc3)[nH]c12 [Example 2, 2-phenyl-1H-pyrrolo[3,2-b]pyridine-7-carboxylic acid] | 6.00 to 7.00 | 6.00 to 7.00 | 6.00 to 7.00 | 6.00 to 7.00 | –
Cc1ccccc1-c1cc2nccc(C(=O)O)c2[nH]1 [Example 3, 2-(2-methylphenyl)-1H-pyrrolo[3,2-b]pyridine-7-carboxylic acid] | 6.00 to 7.00 | 6.00 to 7.00 | > 7.00 | 6.00 to 7.00 | –
COC(=O)c1ccnc2cc(Cc3ccccc3)[nH]c12 [Example 6, methyl 2-benzyl-1H-pyrrolo[3,2-b]pyridine-7-carboxylate] | < 5.00 | < 5.00 | – | < 5.00 | < 5.00
COc1cccc(Cc2cc3nccc(C(=O)O)c3[nH]2)c1 [Example 34, 2-[(3-methoxyphenyl)methyl]-1H-pyrrolo[3,2-b]pyridine-7-carboxylic acid] | 6.00 to 7.00 | > 7.00 | – | 6.00 to 7.00 | < 5.00
Cc1cccc(Cc2cc3nccc(C(=O)O)c3[nH]2)c1 [Example 36, 2-[(3-methylphenyl)methyl]-1H-pyrrolo[3,2-b]pyridine-7-carboxylic acid] | > 7.00 | > 7.00 | – | 6.00 to 7.00 | < 5.00
O=C(O)c1ccnc2cc(COc3ccccc3)[nH]c12 [Example 39, 2-(phenoxymethyl)-1H-pyrrolo[3,2-b]pyridine-7-carboxylic acid] | > 7.00 | > 7.00 | 6.00 to 7.00 | > 7.00 | –
O=C(O)c1ccnc2cc(Cc3ccc(Cl)cc3)[nH]c12 [Example 44, 2-[(4-chlorophenyl)methyl]-1H-pyrrolo[3,2-b]pyridine-7-carboxylic acid] | 6.00 to 7.00 | > 7.00 | – | > 7.00 | < 5.00
O=C(O)c1ccnc2cc(COc3ccc(F)cc3)[nH]c12 [Example 60, 2-[(4-fluorophenoxy)methyl]-1H-pyrrolo[3,2-b]pyridine-7-carboxylic acid] | 6.00 to 7.00 | > 7.00 | – | > 7.00 | 5.00 to 6.00
O=C(O)c1ccnc2cc(COc3ccc(Cl)cc3)[nH]c12 [Example 64, 2-[(4-chlorophenoxy)methyl]-1H-pyrrolo[3,2-b]pyridine-7-carboxylic acid] | > 7.00 | > 7.00 | – | > 7.00 | 5.00 to 6.00
Cc1ccccc1OCc1cc2nccc(C(=O)O)c2[nH]1 [Example 66, 2-[(2-methylphenoxy)methyl]-1H-pyrrolo[3,2-b]pyridine-7-carboxylic acid] | 6.00 to 7.00 | > 7.00 | – | > 7.00 | < 5.00
Cc1cccc(OCc2cc3nccc(C(=O)O)c3[nH]2)c1 [Example 74, 2-[(3-methylphenoxy)methyl]-1H-pyrrolo[3,2-b]pyridine-7-carboxylic acid] | > 7.00 | > 7.00 | – | > 7.00 | < 5.00
O=C(O)c1ccnc2cc(C(=O)N3CCCC3)[nH]c12 [Example 99, 2-(pyrrolidin-1-ylcarbonyl)-1H-pyrrolo[3,2-b]pyridine-7-carboxylic acid] | > 7.00 | > 7.00 | > 7.00 | > 7.00 | –
O=C(O)c1ccnc2cc(Cc3ccc(F)cc3)[nH]c12 [Example 101, 2-[(4-fluorophenyl)methyl]pyrrolo[3,2-b]pyridine-7-carboxylic acid] | > 7.00 | > 7.00 | – | > 7.00 | < 5.00
O=C(O)c1ccnc2cc(Cc3ccc(F)c(F)c3)[nH]c12 [Example 126, 2-(3,4-difluorobenzyl)-1H-pyrrolo[3,2-b]pyridine-7-carboxylic acid] | > 7.00 | 5.00 to 6.00 | > 7.00 | 5.00 to 6.00 | –
O=C(O)c1ccnc2cc(Cc3ccc(Cl)c(Cl)c3)[nH]c12 [Example 130, 2-(3,4-dichlorobenzyl)-1H-pyrrolo[3,2-b]pyridine-7-carboxylic acid] | > 7.00 | 5.00 to 6.00 | 6.00 to 7.00 | 5.00 to 6.00 | –
O=C(O)c1ccnc2cc(Cc3cc(F)c(Cl)c(Cl)c3)[nH]c12 [Example 132, 2-(3,4-dichloro-5-fluorobenzyl)-1H-pyrrolo[3,2-b]pyridine-7-carboxylic acid] | 6.00 to 7.00 | 5.00 to 6.00 | 6.00 to 7.00 | 5.00 to 6.00 | –
